pIC50: −log10 of the molar value. Converted amounts (≈) assume the structure as drawn.

One assay concerns Mycolicibacterium smegmatis. As to the kind of experiment: Antimycobacterial activity against Mycobacterium smegmatis. In kind it is functional.
`CCCC1CCN(Cc2oc(C)cc(=O)c2O)CC1` yielded an MIC of 8 mg/L (≈ 30.1 µM). On the same count and under the same terms, then `Cc1cc(=O)c(O)c(CN2CCC(C)CC2)o1`, with 8 mg/L (≈ 33.7 µM). Same read-out and setting: then `Cc1cc(=O)c(O)c(CN2CC(C)CC(C)C2)o1` (centres undefined), with 8 mg/L (≈ 31.8 µM); and `Cc1cc(=O)c(O)c(CN2CCC(N3CCOCC3)CC2)o1`, with 8 mg/L (≈ 25.9 µM).

Regarding `Cc1cc(=O)c(O)c(CN2CCCC(O)C2)o1` (centres undefined), the MIC worked out at 8 mg/L (≈ 33.4 µM). For `Cc1cc(=O)c(O)c(CN2CCCC(CO)C2)o1` (centres undefined), the MIC is 8 mg/L (≈ 31.6 µM). On the same count and under the same terms, the result for `Cc1cc(=O)c(O)c(CN2CCC(c3ccccn3)CC2)o1` reads 8 mg/L (≈ 26.6 µM); that for `CCCC1CCCCN1Cc1oc(C)cc(=O)c1O` (centres undefined), 8 mg/L (≈ 30.1 µM); that for `Cc1cc(=O)c(O)c(CN2CCC(Cc3ccccc3)CC2)o1`, 8 mg/L (≈ 25.5 µM). On the same count and under the same terms, then `Cc1cc(=O)c(O)c(CN2CCC(c3ccccc3)CC2)o1`, with 8 mg/L (≈ 26.7 µM). Same read-out and setting: then `Cc1cc(=O)c(O)c(CN2CCCCC2)o1`, with 8 mg/L (≈ 35.8 µM); and `Cc1cc(=O)c(O)c(CN2CCC(CO)CC2)o1`, with 8 mg/L (≈ 31.6 µM). On to `Cc1cc(=O)c(O)c(CN2CCC(O)CC2)o1`, for which 8 mg/L (≈ 33.4 µM) was the least that counted as inhibitory (MIC). Still for that read-out and setting: the result for `CCC1CCC(C)N(Cc2oc(C)cc(=O)c2O)C1` (centres undefined) reads 8 mg/L (≈ 30.1 µM). On the same count and under the same terms, then `Cc1cc(=O)c(O)c(CN2C(C)CCCC2C)o1` (centres undefined), with 8 mg/L (≈ 31.8 µM); and `Cc1cc(=O)c(O)c(CN2CCCCC2C)o1` (centres undefined), with 8 mg/L (≈ 33.7 µM); and `CCOC(=O)C1CCN(Cc2oc(C)cc(=O)c2O)CC1`, with 8 mg/L (≈ 27.1 µM). `Cc1cc(=O)c(O)c(CN2CCCC(C)C2)o1` (centres undefined): 8 mg/L (≈ 33.7 µM) was the least that counted as inhibitory (MIC).

With `Cc1cc(=O)c(O)c(CN2CCC(c3ccc(O)cc3)CC2)o1`, the MIC was 8 mg/L (≈ 25.4 µM).

The test system of the next assay is Candida albicans. Kind of assay: Antifungal activity against Candida albicans ATCC 90028. In kind it is functional.
Consider `Cc1cc(=O)c(O)c(CN2CCN(c3ccccn3)CC2)o1`, for which the MIC was 64 mg/L (≈ 212 µM). The same measure, in the same setting: then `Cc1cc(=O)c(O)c(CN2CCN(c3ccc([N+](=O)[O-])cc3)CC2)o1`, with 64 mg/L (≈ 185 µM); and `COc1cccc(N2CCN(Cc3oc(C)cc(=O)c3O)CC2)c1`, with 64 mg/L (≈ 194 µM); and `Cc1cc(=O)c(O)c(CN2CCN(c3cccc(C(F)(F)F)c3)CC2)o1`, with 64 mg/L (≈ 174 µM). `Cc1cc(=O)c(O)c(CN2CCN(Cc3ccc4c(c3)OCO4)CC2)o1`: the lowest concentration to inhibit growth (MIC) was 64 mg/L (≈ 179 µM). Same read-out and setting: the result for `Cc1cc(=O)c(O)c(CN2CCN(c3ccccc3F)CC2)o1` reads 64 mg/L (≈ 201 µM).

The next assay deals with T1, Tyrosinase (Agaricus bisporus, UniProt O42713).
T1 sequence (O42713 whole entry): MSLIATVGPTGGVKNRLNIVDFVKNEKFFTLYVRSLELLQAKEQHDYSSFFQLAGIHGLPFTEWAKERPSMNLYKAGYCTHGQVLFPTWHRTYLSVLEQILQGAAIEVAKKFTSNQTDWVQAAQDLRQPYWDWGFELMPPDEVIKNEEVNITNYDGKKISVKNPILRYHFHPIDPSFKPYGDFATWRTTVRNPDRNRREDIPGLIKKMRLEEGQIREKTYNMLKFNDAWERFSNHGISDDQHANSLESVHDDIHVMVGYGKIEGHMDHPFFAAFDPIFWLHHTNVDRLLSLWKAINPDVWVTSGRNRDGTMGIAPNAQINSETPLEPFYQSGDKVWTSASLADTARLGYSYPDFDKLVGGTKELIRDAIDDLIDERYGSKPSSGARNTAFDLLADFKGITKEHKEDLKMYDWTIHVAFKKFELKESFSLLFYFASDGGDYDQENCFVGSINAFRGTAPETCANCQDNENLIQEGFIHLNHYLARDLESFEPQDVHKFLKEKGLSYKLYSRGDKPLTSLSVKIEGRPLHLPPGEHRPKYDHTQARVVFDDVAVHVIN
As to the kind of experiment: Inhibition of mushroom tyrosinase.
In turn, `COc1ccc(OCc2cn(Cc3cc(=O)c(O)co3)nn2)cc1` had a pIC50 of 7.22.

`Nn1c(SCc2cc(=O)c(O)co2)nnc1-c1ccc(Cl)cc1` had a pIC50 of 5.35. The same measure, in the same setting: then `O=c1cc(Cn2cc(COc3ccc(CO)cc3)nn2)occ1O`, with 7.22; and `O=C(OCc1cc(=O)c(O)co1)c1ccc2c(c1)OCCO2`, with 5.82. Same read-out and setting: the result for `O=c1cc(Cn2cc(COc3ccc([N+](=O)[O-])cc3)nn2)occ1O` reads 7.22. Still for that read-out and setting: the result for `O=c1cc(Cn2cc(COc3ccc(Cl)cc3Cl)nn2)occ1O` reads 7.22; that for `O=C(OCc1cc(=O)c(O)co1)c1ccc2c(c1)OCO2`, 5.82; that for `COc1cc(OC)cc(OCc2cn(Cc3cc(=O)c(O)co3)nn2)c1`, 7.22. As to `O=c1cc(Cn2cc(COc3ccccc3)nn2)occ1O`, the pIC50 was 7.22. Still for that read-out and setting: then `O=c1cc(Cn2cc(COc3cccc(F)c3)nn2)occ1O`, with 7.22; and `COc1cc(OCc2cn(Cc3cc(=O)c(O)co3)nn2)cc(OC)c1OC`, with 7.22. The same measure, in the same setting: then `O=c1cc(Cn2cc(COc3ccc(Cl)cc3)nn2)occ1O`, with 7.22; and `O=c1cc(CSc2ccc(O)cc2)occ1O`, with 6.27. Still for that read-out and setting: the result for `O=c1cc(Cn2cc(COc3ccc(F)cc3)nn2)occ1O` reads 7.22; that for `O=C(/C=C/c1ccc2c(c1)OCCO2)OCc1cc(=O)c(O)co1`, 5.82; that for `O=c1cc(Cn2cc(COc3ccc(Br)cc3)nn2)occ1O`, 7.22.

Regarding `O=c1cc(Cn2cc(COc3cccc(Cl)c3)nn2)occ1O`, the pIC50 is 7.22. Still for that read-out and setting: then `CC(=O)Nc1ccc(OCc2cn(Cc3cc(=O)c(O)co3)nn2)cc1`, with 7.22; and `N#Cc1ccc(OCc2cn(Cc3cc(=O)c(O)co3)nn2)cc1`, with 7.22.
